What was measured:
[1] = molecular target: Histamine H3 receptor (Homo sapiens, UniProt Q9Y5N1); assay: Inhibition of histamine H3 receptor
[2] = molecular target: Acetylcholinesterase (Homo sapiens, UniProt P22303); assay: Inhibition of AChE
Sequence of Acetylcholinesterase (P22303 whole entry): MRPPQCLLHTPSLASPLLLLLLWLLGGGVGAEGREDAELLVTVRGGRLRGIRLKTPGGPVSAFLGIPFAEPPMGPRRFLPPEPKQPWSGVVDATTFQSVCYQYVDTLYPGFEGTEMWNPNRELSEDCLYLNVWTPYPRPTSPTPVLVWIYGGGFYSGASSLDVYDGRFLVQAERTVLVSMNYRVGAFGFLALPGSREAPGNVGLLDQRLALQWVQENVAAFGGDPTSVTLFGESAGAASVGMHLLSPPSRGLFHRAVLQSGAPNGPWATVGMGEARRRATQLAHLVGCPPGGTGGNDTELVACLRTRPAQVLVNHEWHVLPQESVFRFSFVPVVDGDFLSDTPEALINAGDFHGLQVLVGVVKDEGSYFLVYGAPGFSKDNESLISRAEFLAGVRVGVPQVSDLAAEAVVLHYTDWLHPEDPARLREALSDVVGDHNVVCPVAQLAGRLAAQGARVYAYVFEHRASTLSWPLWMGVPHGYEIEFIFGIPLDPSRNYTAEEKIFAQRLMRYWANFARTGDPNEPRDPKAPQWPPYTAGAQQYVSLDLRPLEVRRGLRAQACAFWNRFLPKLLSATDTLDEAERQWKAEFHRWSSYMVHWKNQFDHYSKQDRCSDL

Sequence of Histamine H3 receptor (Q9Y5N1 whole entry): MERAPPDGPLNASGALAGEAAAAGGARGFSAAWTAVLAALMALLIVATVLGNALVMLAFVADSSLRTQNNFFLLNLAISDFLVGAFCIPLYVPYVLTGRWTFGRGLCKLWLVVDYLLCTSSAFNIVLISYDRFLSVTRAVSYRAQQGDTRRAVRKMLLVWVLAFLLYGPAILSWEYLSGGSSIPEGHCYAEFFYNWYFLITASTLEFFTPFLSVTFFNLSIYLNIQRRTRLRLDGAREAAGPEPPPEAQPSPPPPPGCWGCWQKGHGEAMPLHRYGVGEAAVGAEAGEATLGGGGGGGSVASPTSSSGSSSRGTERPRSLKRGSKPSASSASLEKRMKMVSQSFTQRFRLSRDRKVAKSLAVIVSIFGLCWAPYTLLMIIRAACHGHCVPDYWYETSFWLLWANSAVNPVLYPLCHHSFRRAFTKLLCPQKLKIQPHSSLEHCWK

SMILES	IC50 [1] [nM]	IC50 [2] [nM]
OC1CCN(Cc2ccc(OCCCN3CCCCC3)cc2)CC1	0.72	2300
OCCC1CCN(Cc2ccc(OCCCN3CCCCC3)cc2)CC1	0.98	350
OCC1CCN(Cc2ccc(OCCCN3CCCCC3)cc2)CC1	1.3	1100
C[N+](C)(C)CCCCCCCCCC[N+](C)(C)C [DECAMETHONIUM]	820	5900
COc1cc2c(cc1OC)C(=O)C(CC1CCN(Cc3ccccc3)CC1)C2 (stereo not given) [DONEPEZIL]	350	–
c1cc(OCCCN2CCCCC2)ccc1CN1CCCCC1 [JNJ-5207852]	–	3200

From ChEMBL document CHEMBL1143968, “Lead identification of acetylcholinesterase inhibitors-histamine H3 receptor antagonists from molecular modeling” (Bioorg Med Chem, 2008)
